Calls of active or inactive are those of the source. The calls are words filed in the database; no cut-off is given here.
Tests used:
MGC-803 [1] = experiment: Antitumor activity against human MGC-803 cells xenografted in BALB/c nude mice assessed as tumor inhibitory rate at 5 mg/kg, ip measured after 21 days relative to control; type: functional; conditions: Mus musculus, MGC-803, ip, 504 h, time 21 day
MGC-803 [2] = experiment: Induction of apoptosis in human MGC-803 cells assessed as late apoptotic cells at 2 uM after 24 hrs (reference value: 2.6%); type: functional
MGC-803 [3] = experiment: Induction of apoptosis in human MGC-803 cells assessed as increase in caspase-3 expression at 0.5 to 1 uM by Western blot analysis; type: functional, cell-based; conditions: dose 0.5-1 µM
MGC-803 [4] = experiment: Induction of apoptosis in human MGC-803 cells assessed as necrotic cells at 1 uM after 24 hrs (reference value: 0.9%); type: functional
DNA [5] = experiment: Induction of DNA damage in human MGC-803 cells assessed as long DNA tails at 1 uM after 24 hrs by comet assay; type: cell-based
SMMC-7721 = experiment: Antiproliferative activity against human SMMC-7721 cells by MTT assay; type: functional, cell-based
MGC-803 [6] = experiment: Induction of cell cycle arrest in human MGC-803 cells assessed as accumulation of cells at G1 phase at 0.5 uM for 24 hrs (reference value: 62.6%); type: functional
MGC-803 [7] = experiment: Effect on CDK2 expression in human MGC-803 cells at 0.5 to 1 uM by Western blot analysis; type: functional, cell-based; conditions: dose 0.5-1 µM
MGC-803 [8] = experiment: Upregulation of p21 expression in human MGC-803 cells at 0.5 to 1 uM by Western blot analysis; type: functional, cell-based; conditions: dose 0.5-1 µM
DNA [9] = experiment: Binding affinity to Escherichia coli pBR322 DNA assessed as intercalation at 10 to 100 uM by agarose gel electrophoresis assay; type: nucleic-acid assay; conditions: dose 10-100 µM
MGC-803 [10] = experiment: Induction of cell cycle arrest in human MGC-803 cells assessed as accumulation of cells at G1 phase at 1 uM for 24 hrs (reference value: 62.6%); type: functional
MGC-803 [11] = experiment: Induction of apoptosis in human MGC-803 cells assessed as increase in Bax expression at 0.5 to 1 uM by Western blot analysis; type: functional, cell-based; conditions: dose 0.5-1 µM
A549 = experiment: cells; conditions: Homo sapiens
Description: Antiproliferative activity against human A549 cells by MTT assay

MGC-803 [12] = experiment: Antitumor activity against human MGC-803 cells xenografted in BALB/c nude mice assessed as tumor increment rate at 15 mg/kg, ip measured after 21 days relative to control; type: functional; conditions: time 21 day
MGC-803 [13] = experiment: Antitumor activity against human MGC-803 cells xenografted in BALB/c nude mice assessed as tumor increment rate at 5 mg/kg, ip measured after 21 days relative to control; type: functional; conditions: time 21 day
[14] = target: T1, DNA topoisomerase 1 (Homo sapiens) (UniProt P11387); experiment: Inhibition of topoisomerase 1 (unknown origin) using pBR322 DNA as substrate at 20 uM by gel electrophoresis
T1 sequence (whole entry): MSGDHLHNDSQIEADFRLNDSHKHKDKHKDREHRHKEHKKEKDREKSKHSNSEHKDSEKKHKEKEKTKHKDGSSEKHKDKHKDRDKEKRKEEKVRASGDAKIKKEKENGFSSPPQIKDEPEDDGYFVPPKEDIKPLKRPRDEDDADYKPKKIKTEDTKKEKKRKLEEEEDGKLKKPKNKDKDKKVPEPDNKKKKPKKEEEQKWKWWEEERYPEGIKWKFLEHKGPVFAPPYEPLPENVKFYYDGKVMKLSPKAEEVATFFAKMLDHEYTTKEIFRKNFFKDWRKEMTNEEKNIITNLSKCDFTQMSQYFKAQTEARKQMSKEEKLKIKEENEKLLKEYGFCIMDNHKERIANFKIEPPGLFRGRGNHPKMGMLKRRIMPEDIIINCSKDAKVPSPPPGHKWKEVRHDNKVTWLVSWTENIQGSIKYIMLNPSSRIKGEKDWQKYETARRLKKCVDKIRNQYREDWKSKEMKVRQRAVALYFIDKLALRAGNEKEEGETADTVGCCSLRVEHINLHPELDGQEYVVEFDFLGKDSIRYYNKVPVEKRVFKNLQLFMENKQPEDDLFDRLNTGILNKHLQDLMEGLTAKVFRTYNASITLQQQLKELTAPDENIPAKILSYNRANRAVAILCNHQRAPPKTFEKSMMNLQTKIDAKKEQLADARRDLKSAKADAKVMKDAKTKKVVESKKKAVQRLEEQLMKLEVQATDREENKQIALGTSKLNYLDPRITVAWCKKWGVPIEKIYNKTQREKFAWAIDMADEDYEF

[15] = target: T1, DNA topoisomerase 1 (Homo sapiens); experiment: Inhibition of topoisomerase 1 (unknown origin) using pBR322 DNA as substrate at 10 uM by gel electrophoresis

## Cc1ccc(S(=O)(=O)N2CCN(c3c([N+](=O)[O-])cc4c5c(cccc35)C(=O)N(CCN(C)C)C4=O)CC2)cc1
MGC-803 [1]
  inhibition in vivo at 5 mg/kg: 41.9%
MGC-803 [2]
  Activity: 10.2%
MGC-803 [3]
  Activity: Active
MGC-803 [4]
  Activity: 4.2%
DNA [5]
  Activity: Active
SMMC-7721
  IC50: 2710 nM
MGC-803 [6]
  Activity: 55.85%
MGC-803 [7]
  Activity: Active
MGC-803 [8]
  Activity: Active
DNA [9]
  Activity: Active
MGC-803 [10]
  Activity: 24.82%
MGC-803 [11]
  Activity: Active
A549
  IC50: 270 nM
MGC-803 [12]
  T/C: 38.4%
MGC-803 [13]
  T/C: 52%
[14]
  inhibition: Active

## CN(C)CCN1C(=O)c2cccc3c(N4CCN(C(=O)c5ccccc5)CC4)c([N+](=O)[O-])cc(c23)C1=O
MGC-803 [1]
  inhibition in vivo at 5 mg/kg: 40.1%
MGC-803 [2]
  Activity: 20.5%
[15]
  inhibition: Active
MGC-803 [3]
  Activity: Active
MGC-803 [4]
  Activity: 4.7%
DNA [5]
  Activity: Active
SMMC-7721
  IC50: 1570 nM
MGC-803 [6]
  Activity: 27.88%
MGC-803 [7]
  Activity: Active
MGC-803 [8]
  Activity: Active
DNA [9]
  Activity: Active
MGC-803 [10]
  Activity: 27.92%
MGC-803 [11]
  Activity: Active
A549
  IC50: 410 nM
MGC-803 [12]
  T/C: 47.1%
MGC-803 [13]
  T/C: 59.8%
